Test results: PMC6853638, “TMC1 is an essential component of a leak channel that modulates tonotopy and excitability of auditory hair cells in mice” (eLife, 2019)
“And” between values parts separate entries of the source, which are not always exact repeats. Identical values can stand only once. Like-named read-outs stand apart in the source and are kept apart here. Each block holds one compound with its values, some of them ahead of it.

Key:
Type in all cases: cell-based
MET channel = biological target: T1, MET channel (Mus musculus, UniProt Q8R4P5); assay: MET current (IMET) inhibition by blockers, whole-cell voltage clamp of OHCs with glass-probe hair-bundle deflection
T1 construct: the basilar membrane with hair cells was acutely dissected from neonatal mice; endogenous in cells; host or cells: outer hair cells of acutely dissected neonatal mouse cochlea
T1 sequence (Q4KL25 whole entry partner, one chain of several): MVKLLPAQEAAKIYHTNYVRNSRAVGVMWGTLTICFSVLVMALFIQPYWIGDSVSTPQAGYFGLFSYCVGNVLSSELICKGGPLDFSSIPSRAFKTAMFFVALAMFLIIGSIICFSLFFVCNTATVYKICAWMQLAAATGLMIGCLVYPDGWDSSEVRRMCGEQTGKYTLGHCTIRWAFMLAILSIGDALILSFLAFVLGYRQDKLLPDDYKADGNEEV
T1 sequence (Q8K467 29-153 partner, one chain of several): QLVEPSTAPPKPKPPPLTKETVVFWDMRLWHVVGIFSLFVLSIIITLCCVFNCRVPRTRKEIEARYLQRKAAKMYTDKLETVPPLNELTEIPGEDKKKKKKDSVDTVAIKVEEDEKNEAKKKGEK
T1 sequence (Q9Z309 whole entry partner, one chain of several): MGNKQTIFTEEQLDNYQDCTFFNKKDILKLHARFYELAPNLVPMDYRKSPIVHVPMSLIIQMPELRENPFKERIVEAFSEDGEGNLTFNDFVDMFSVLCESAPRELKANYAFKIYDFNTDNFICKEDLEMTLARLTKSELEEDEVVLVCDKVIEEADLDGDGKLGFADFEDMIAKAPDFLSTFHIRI
Experimental: All experiments were performed at room temperature (20–25°C). Briefly, the basilar membrane with hair cells was acutely dissected from neonatal mice. […] The acutely isolated or cultured basilar membrane was used for electrophysiological recording within 1 h. […] Hair cells were recorded with a patch-clamp amplifier (EPC 10 USB and Patchmaster software, HEKA Elektronik, Lambrecht/Pfalz, Germany).
(§1) The sampling rate was 1 kHz for leak current recording, 50 kHz for the IV protocol and current-clamp recording, and 100 kHz for unitary channel recording. The voltage-clamp used a –70 mV holding potential, and the current-clamp was held at 0 pA. Only recordings with a current baseline <20 pA in NMDG solution were used for statistical analysis.
The hair bundle was deflected by two types of mechanical stimulus, fluid jet and glass probe. […] In brief, a 40 Hz sinusoidal wave stimulus was delivered by a 27-mm-diameter piezoelectric disc driven by a home-made piezo amplifier pipette with a tip diameter of 3–5 μm positioned 5–10 μm from the hair bundle to evoke maximum MET currents. […] The actuator was driven with voltage steps that were low-pass filtered at 10 KHz. To avoid bundle damage caused by overstimulation, the glass probe was shaped to have a slightly smaller diameter than the hair bundles, and the stimulation distance was 800 nm for macroscopic current and 100 nm for unitary channel recording. For hair bundle removal, a pipette with 1 μm diameter tip was used to suck away the hair bundles of the target OHCs. The hair-bundle-removed OHCs with good condition were further recorded. Examined by a fluid-jet stimulation, the OHCs without obvious MET current were further measured for the leak current.
(§2) Dose-inhibition curves were fitted with a Hill equation: Ix/Imax=X^h/(K^h+X^h))
(§3) Where K is the half-inhibition dose (IC50) and h is the Hill slope. Imax is the maximal current in control condition.

[1] = biological target: T2, TMC1-mediated leak current (Mus musculus, UniProt Q8R4P5); assay: MET-independent leak current (ILeak) in OHCs, MET channel closed by fluid jet or 100 μM DHS, NMDG subtraction (also by cochlear location and age); conditions: 0.3 mM Ca2+
T2 construct: the basilar membrane with hair cells was acutely dissected from neonatal mice; endogenous in cells; host or cells: outer hair cells of acutely dissected neonatal mouse cochlea
T2 sequence (Q8R4P5 1-757): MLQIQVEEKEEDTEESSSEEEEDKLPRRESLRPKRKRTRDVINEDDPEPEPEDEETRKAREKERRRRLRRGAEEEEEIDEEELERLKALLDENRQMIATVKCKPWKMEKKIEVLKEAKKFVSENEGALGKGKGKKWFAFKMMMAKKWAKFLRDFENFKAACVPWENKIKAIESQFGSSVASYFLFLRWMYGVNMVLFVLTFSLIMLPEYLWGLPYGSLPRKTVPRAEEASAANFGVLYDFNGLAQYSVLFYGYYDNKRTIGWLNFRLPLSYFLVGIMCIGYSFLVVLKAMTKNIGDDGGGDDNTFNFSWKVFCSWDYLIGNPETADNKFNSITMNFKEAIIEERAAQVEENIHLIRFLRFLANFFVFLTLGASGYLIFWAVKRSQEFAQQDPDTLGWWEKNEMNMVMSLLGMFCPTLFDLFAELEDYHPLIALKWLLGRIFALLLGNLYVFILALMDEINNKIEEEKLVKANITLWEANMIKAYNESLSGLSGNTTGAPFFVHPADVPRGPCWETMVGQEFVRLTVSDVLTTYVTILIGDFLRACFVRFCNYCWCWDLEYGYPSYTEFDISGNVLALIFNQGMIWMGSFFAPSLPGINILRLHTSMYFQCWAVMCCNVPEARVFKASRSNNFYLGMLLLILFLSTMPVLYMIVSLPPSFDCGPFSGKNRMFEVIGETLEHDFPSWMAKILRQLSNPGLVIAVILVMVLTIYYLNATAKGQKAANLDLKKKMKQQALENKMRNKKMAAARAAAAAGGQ
Experimental: Thus, the IBG may come from the resting MET current. […] A sinusoidal fluid jet deflected the hair bundle back and forth to open and close the MET channels (Figure 3A, inset). The Im was 98 pA at rest (Figure 3A,B), while the Im was 45 pA at fluid-jet-closed status (Figure 3B, #1). […] Thus, the ILeak persisted in either mechanical closure or pharmacological blockade of the MET channel (Figure 3C).
(§4) Hair cells were recorded using whole-cell voltage or current clamp as previously described ([Xiong et al., 2012]). All experiments were performed at room temperature (20–25°C). Briefly, the basilar membrane with hair cells was acutely dissected from neonatal mice. […] The acutely isolated or cultured basilar membrane was used for electrophysiological recording within 1 h. Hair cells were imaged under an upright microscope (BX51WI, Olympus, Tokyo, Japan) with a 60 × water immersion objective and an sCMOS camera (ORCA Flash4.0, Hamamatsu, Hamamatsu City, Japan) controlled by MicroManager 1.6 software ([Edelstein et al., 2010]). Patch pipettes were made from borosilicate glass capillaries (BF150-117-10, Sutter Instrument Co., Novato, CA) with a pipette puller (P-2000, Sutter) and polished on a microforge (MF-830, Narishige, Tokyo, Japan) to resistances of 4–6 M'Ω. Intracellular solution contained (in mM): 140 CsCl, 1 MgCl2, 0.1 EGTA, 2 Mg-ATP, 0.3 Na-GTP, and 10 H-HEPES, pH 7.2), except when CsCl was replaced with KCl in current-clamp. Hair cells were recorded with a patch-clamp amplifier (EPC 10 USB and Patchmaster software, HEKA Elektronik, Lambrecht/Pfalz, Germany).
The sampling rate was 1 kHz for leak current recording, 50 kHz for the IV protocol and current-clamp recording, and 100 kHz for unitary channel recording. The voltage-clamp used a –70 mV holding potential, and the current-clamp was held at 0 pA. […]
The hair bundle was deflected by two types of mechanical stimulus, fluid jet and glass probe. […] The hair-bundle-removed OHCs with good condition were further recorded. Examined by a fluid-jet stimulation, the OHCs without obvious MET current were further measured for the leak current.

[2] = biological target: T3, TMC1-mediated leak conductance (Mus musculus, UniProt Q8R4P5); assay: Background/leak current (IBG) inhibition by blockers, whole-cell voltage clamp of OHCs
T3 sequence (Q8R4P5 1-757): T2 sequence (Q8R4P5 1-757)
Experimental: as §4, with “Intracellular solution contained (in mM): 140 CsCl, 1 MgCl2, 0.1 EGTA, 2 Mg-ATP, 0.3 Na-GTP, and 10 H-HEPES, pH 7.2), except when CsCl was replaced with KCl in current-clamp.” left out
as §1, §2, §3

SMILES: [Gd+3] [Gd3+]
MET (normalized), first block c1-c15 (MET channel; Gd3+ 4000): 0.01958 and 0.0181 and 0.03486 and 0.01803 and 0.02788 and 0.02096 and 0.03255

DHS-NMDG (ILeak subtracted from that closed by 100 μM DHS), mean ± SEM ([1]; holding −70 mV): –65 ± 6 pA
membrane current in 144 Na + 0.1 DHS (IDHS) ([1]; holding −70 mV): 55 pA
blocking effect on the current baseline ([2]; 100 μM, working concentration that blocks MET channels): no blocking effect
IC50 ([2]; OHCs, […] Ca2+, holding −70 mV, Hill fit; read-out: IC50, IBG (leak conductance)): 487 µM
IC50 (MET channel; read-out: IC50, IMET): 15 µM
SMILES: CN[C@@H]1[C@H](O[C@H]2[C@H](O[C@H]3[C@H](O)[C@@H](O)[C@H](NC(=N)N)[C@@H](O)[C@@H]3NC(=N)N)O[C@@H](C)[C@]2(O)CO)O[C@@H](CO)[C@H](O)[C@H]1O [DHS, dihydrostreptomycin]
DHS-NMDG subtracted current, individual cells ([1]; source data of Figure 3C): -80.6086 pA and -48.8286 pA and -49.155 pA and -61.767 pA and -98.5004 pA and -60.6081 pA and -57.9458 pA and -59.6138 pA
Leak (normalized) ([2]; DHS 100 μM): 0.7251 and 0.66 and 1.086 and 0.62 and 0.8723 and 0.8832 and 0.9258

SMILES: [La+3] [La3+]
met (normalized) (MET channel; La3+ 4000): 0.01513 and 0.01398 and 0.02694 and 0.01393 and 0.02154 and 0.01619 and 0.02515

SMILES: COc1cc2c3cc1Oc1cc(ccc1O)C[C@@H]1c4c(cc(OC)c(O)c4Oc4ccc(cc4)C[C@@H]3N(C)CC2)CC[N+]1(C)C [dTC, d-tubocurarine]
Leak nor ([2]; dTC 0.01): 1.062 and 1.003 and 1.024 and 0.9706 and 0.8444 and 0.8511 and 0.9123
effect on the leak current compared with the MET current ([2]; graded concentrations): affected the leak current, albeit at higher concentrations than the MET current
IC50 ([2]; read-out: IC50, IBG (leak conductance); OHCs, […] Ca2+, holding −70 mV, Hill fit): 82 µM
IC50 (MET channel): 6 µM

effect on the leak current ([2]; [Gd3+]o up to 80 μM): not affected
SMILES: [Cl][Gd]([Cl])[Cl] [Gd^3+, GdCl3]
